From a melting point compilation (Tetko et al.; mined from patent text by program, amines drawn as free bases though some values may be those of a salt) come the findings set out here.

Broadly, the melting point is the temperature, or range, at which the solid turns liquid. For `O=C(NCCNCCNC(=O)c1cccc2cc3ccccc3nc12)c1cccc2cc3ccccc3nc12`, the melting point was in the range of 182 to 184 °C.
`CN(C)n1c(Br)nn(C(=O)Oc2ccccc2)c1=O` displayed a melting point of 136 °C.
The figure for `O=C(NC1CCCCC1)NS(=O)(=O)c1ccc2c(c1)CCN(C(=O)N1CCOCC1)CC2` is 190 to 191 °C.
Consider `CCOC(=O)C(C(=O)OCC)[C@@H](c1ccccc1)c1c[nH]c2cccc(OC)c12`, for which the melting point was in the range of 134 to 136 °C.
Molecule `Cc1c(C)c2c(c(C)c1NC(=O)NC(C)(C)C)C(c1ccc(C(C)C)cc1)CO2` (centres undefined) registered a melting point of 201 to 202 °C.
Turning to `Cc1ccncc1NC(=O)OC(C)(C)C`, the melting point fell in the range of 91 to 93 °C.
`O=C(OCc1ccccc1)c1cc(-c2ccc(-c3ccc(C(F)(F)F)cc3)o2)ccc1OCc1ccccc1` gave a melting point of 97 to 98 °C.
Take `ClC1=Nc2cc(Br)ccc2Oc2cscc21`: the melting point was in the range of 196 to 197 °C.
In turn, `O=c1[nH]c2ccccc2n1CCN1CCN(C(c2ccccc2)c2ccccc2)CC1` registered a melting point of 218 °C.
In turn, `O=C(Oc1ccc(C(=O)c2ccc(Cl)cc2)cc1)Oc1ccc(C(=O)c2ccc(Cl)cc2)cc1` displayed a melting point of 235 to 237 °C.
The molecule `CCC(CC)(Cc1ccc(Cl)cc1)C(O)c1cccnc1` (centres undefined) returned a melting point of 128 to 129 °C.
The molecule `Cn1cnc(=O)[nH]c1=O` displayed a melting point of 213 to 214 °C.
For the molecule `CCCCCCCCCCCCOCC(COCCCCCCCCCCCC)(CC(=O)O)CC(=O)O`, the melting point is 80 to 82 °C.
The figure for `O[C@]1(c2ccccc2)CCS[C@H]2CN(Cc3ccccc3)C[C@H]21` (racemic) is 137 °C.
Take `CCCCCCCCC(Cc1cccnc1)(C(=O)NO)S(=O)(=O)c1ccc(OC)cc1` (centres undefined): the melting point is 62 °C.
In turn, `Cc1nc(N2CCN(Cc3ccc(F)cc3)C2=O)sc1C(=O)NCc1cccnn1` had a melting point of 222 to 225 °C.
With `Cn1cc(-c2ccncn2)ccc1=O`, the melting point was in the range of 147 to 149 °C.
The molecule `O=C(O)c1cccc(OCc2ccc(Cl)cc2Cl)c1OCc1ccccc1` displayed a melting point of 151 to 153 °C.
Turning to `COCCOC(=O)C1=C(C)NN=C(C(=O)OC(C)C)C1c1cccc([N+](=O)[O-])c1` (centres undefined), the melting point was 146 to 148 °C.
With `CCc1nn(C2CCCC2)c(N)c1C(N)=O`, the melting point was 167 to 168 °C.
`CN(C)CCC(Oc1ccc(NS(C)(=O)=O)cc1)c1ccccc1` (centres undefined) yielded a melting point of 145 to 147 °C.
The figure for `NC(=O)c1cn2c(nc1=O)CCCCC2` is 219 °C; for `CNC(=N[N+](=O)[O-])NCc1cnc(Br)s1` it is 170 °C.
With `O=C1NCN(c2ccccc2)C12CCN(CCCn1cnc3ccccc31)CC2`, the melting point amounted to 191 °C.
`CCOC(=O)Nc1cc(F)cc(CCCCC(=O)O)c1` returned a melting point of 136 to 137 °C.
For `COC(=O)NNC(=S)CC(C)(C)C`, the melting point is 72.5 to 73 °C.
Regarding `COc1ccc(Cl)cc1C(=O)CCC(=O)O`, the melting point is 113 to 115 °C.
Consider `Cc1cc(-c2ccc(O)cc2)ccc1C=NO`, for which the melting point lay in the range of 195 to 197 °C.
In turn, `O=c1ncc(Br)cn1CCO` returned a melting point of 177 to 179 °C.
Consider `Clc1ccc2nc(-n3cccn3)nnc2c1`, for which the melting point was determined as 188 °C.
To `CC12CCC3C(CC=C4CC(C(=O)CBr)CCC43C)C1CCC2=O` (centres undefined) belongs 150 °C; to `COc1ccc(Nc2cc(-c3ccccc3)nc(N3CCC(O)CC3)n2)cc1Cl`, 188 to 191 °C.
In turn, `Fc1ccccc1C1=CCC(=S)Nc2ccc(Cl)cc21` showed a melting point of 179 to 181 °C.
`COc1ccc2nc(-c3cc(C(F)(F)F)nn3-c3ccc(S(C)(=O)=O)cc3)sc2c1` displayed a melting point of 217 to 218 °C.
For the molecule `CC(C)n1nc(-c2sc(NC(=O)COc3ccccc3)nc2-c2ccccc2)ccc1=O`, the melting point is 243 to 244 °C.
`COC(=O)C(C(=O)OC)c1cc([N+](=O)[O-])ccc1C(=O)O` gave a melting point of 153 °C.
The figure for `Cc1cc(C#CC=O)nc(Oc2cc(C(F)(F)F)nn2C)c1` is 73 °C.
Take `O=c1oc2ccc(-c3ccc(F)cc3F)cc2c(=O)n1-c1ccccc1C(F)(F)F`: the melting point is 200 to 201 °C.
The figure for `O=C(CCCCCCc1ccccc1)c1c(O)c2cccnc2n(-c2ccccc2)c1=O` is 153 to 154 °C; for `COc1cc(OCc2ccccn2)ccc1/C=C/c1cc(/C=C/c2ccc3cc[nH]c3c2)n(C(C)O)n1` (centres undefined) it is 94 to 97 °C.
`CCOC(=O)c1c(C(F)(F)F)nc(C(F)(F)Cl)c(C(=O)OC)c1N1CCCC1` yielded a melting point of 72 to 73.5 °C.
Consider `CC(C)n1nc(-c2c(-c3ccccc3)nn3ccc(OCC(=O)NCCN(C)C)cc23)ccc1=O`, for which the melting point was 117 to 119 °C.
`COc1ccc([C@H]2NC(=S)N[C@H]2c2ccc(OC)cc2)cc1`: the melting point fell in the range of 226 to 227 °C.
The figure for `CSC(Cc1cnn(-c2c(Cl)cc(C(F)(F)F)cc2Cl)n1)SC` is 97 to 98 °C; for `Cc1oc(-c2ccc3ccccc3c2)nc1COc1ccc(CCCCC2OC(=O)NC2=O)cc1` (centres undefined) it is 163 to 164 °C; for `OCCOc1ccc2cc[nH]c2c1` it is 74 to 77 °C.
For the molecule `O=S(=O)(F)c1cc2nc(Cl)c(Cl)nc2cc1Cl`, the melting point is 109 to 111 °C.
To `CC(=O)OCCOCn1cnc2c(N)nc(N)nc21` belongs 69 to 70 °C; to `Nc1cc(O)ccc1F`, 137 to 139 °C.
The molecule `O=C(Nc1[nH]nc(-c2c(Cl)cc(C(F)(F)F)c(F)c2Cl)c1[N+](=O)[O-])C(Cl)Cl` registered a melting point of 115 to 117 °C.
Turning to `CCN=C(SC)N(C)Cc1ccc(Cl)nc1`, the melting point fell in the range of 132 to 133 °C.
The figure for `COC(=O)c1ccc(SC)c([N+](=O)[O-])c1` is 118 to 120 °C; for `CCCCn1c(=O)c(=O)[nH]c2c3ccccc3ccc21` it is 269 °C; for `FC(F)(F)c1cc(-c2ccc(Cl)cc2)nc2c(-c3cccnc3)ncn12` it is 206 °C.
Turning to `Cc1cc(C(O)(C(F)(F)F)C(F)(F)F)cc(C)c1OCC(N)=O`, the melting point is 180 to 182 °C.
The figure for `NC(=O)[C@@H]1[C@H](Nc2c(Br)cnc3[nH]c(-c4cccc(N5CCOCC5)c4)nc23)[C@H]2C=C[C@@H]1C2` is 232 to 234 °C.
As for `O=C(c1ccc(O)nc1)N1CCN=C1Nc1c(Cl)cccc1Cl`, the melting point fell in the range of 256 to 258 °C.
In the case of `CCCn1c(=O)c2[nH]c(/C=C/c3cccnc3)nc2n(CCC)c1=O`, the melting point is 265 to 267 °C.
`Cc1ccc2cccc(OCc3c(Cl)ccc(S(=O)(=O)N(C)C(C)(C)C)c3Cl)c2n1` yielded a melting point of 160 to 162 °C.
Molecule `COc1cc(OC)c2c(=O)[nH]c(-c3ccc(OC)c(-c4ccc(C(=O)N(C)C)cc4C)n3)nc2c1` had a melting point of 248 to 251 °C.
`CCN(CCN(C)C)c1ccc(-c2ccnc(Nc3cc(OC)c(OC)c(OC)c3)n2)cn1` had a melting point of 90 °C.
The molecule `CN(C)C(=O)n1oc(CCl)cc1=O` registered a melting point of 89 to 90 °C.
`Cc1cc(F)ccc1Nc1nc(N2CCc3ccccc3C2C)c2cccc(OCCO)c2n1` (centres undefined) had a melting point of 120 to 122 °C.
Regarding `Cn1c(CNCC(C)(C)C)cc2cc(NC(=O)c3ccc(C#CC4(O)CC4)cc3)ccc21`, the melting point was found to be 173 °C.
Consider `O=C1c2cccc(SCCC(O)O)c2C(=O)c2cccc(SCCC(O)O)c21`, for which the melting point was in the range of 238 to 239 °C.
The molecule `CCCc1cc2nn(Cc3ccc(NC(=O)c4ccccc4S(=O)(=O)O)cc3)c(=O)n2c(C)n1` returned a melting point of 283 to 286 °C.
`CCCCn1c(=O)[nH]c2ccc(OC)c(OC)c2c1=N` registered a melting point of 165 to 168 °C.
Consider `CN1CCNC(=O)C1c1ccc([N+](=O)[O-])cc1` (centres undefined), for which the melting point lay within 185 to 186 °C.
Molecule `CC(=O)NCCNC(=O)c1ccc(Cl)cc1` had a melting point of 222 to 224 °C.
The figure for `Nc1cccc(C(=O)Nc2ccc(C(=O)N3CCCc4ccccc43)cc2)c1` is 206 °C.
The figure for `CCOc1ccccc1C1OC(=O)NC1=O` (centres undefined) is 165 to 167 °C; for `CCCCCCCCCCCCCCCCOCC1=CCCO1` it is 30.5 to 31.5 °C; for `CC(C)(C)c1cc(-c2nn(-c3ccccc3)c3ncccc23)cc(C(C)(C)C)c1O` it is 174 to 175 °C.
`CCOC(=O)CSc1nc(-c2ccccc2)c(-c2ccccc2)o1` displayed a melting point of 53 to 55 °C.
To `CSc1ccc(-n2c(-c3cccnc3)nc(SC)c(C#N)c2=O)cc1` belongs 212 to 215 °C.
`CCOC(=O)c1ccc2c(c1)CC(CO)O2` (centres undefined) displayed a melting point of 72 to 77 °C.
For `CCOC(=O)c1c(CSc2nccn2CC)nc2cc(OC)c(OC)cc2c1-c1ccc(OC)c(OC)c1`, the melting point fell in the range of 157 to 158 °C.
To `CC#CCOc1ccc(S(=O)C(C(=O)NO)c2ccccc2)cc1` (centres undefined) belongs 55 °C; to `CCCCCCCCCCCCCc1c[nH]c(C=O)c1`, 61 to 64 °C.
Turning to `CCCCc1nc2c(N)nc3ccccc3c2n1CCCNC(=O)Nc1ccccc1`, the melting point fell in the range of 191 to 192 °C.
In the case of `COc1ccc(C(C)(C)C(=O)O)cc1`, the melting point is 86 to 88 °C.
In turn, `CC(C)([C@H](NC(=O)c1ccccc1)C(=O)N[C@@H](Cc1ccccc1)[C@H](O)CN1C[C@H]2CCCC[C@H]2C[C@H]1C(=O)NCc1ccccc1)S(C)(=O)=O` had a melting point of 212 to 218 °C.
`COc1ccc(-c2c(Cl)c(CN3CCCCC3=O)nc3sc4c(c23)CCN(Cc2ccccc2)C4)cc1OC` showed a melting point of 113 to 114 °C.
Take `O=S1(=O)NCN(C2CCCCC2)c2ccc(Cl)cc21`: the melting point lay in the range of 233 to 235 °C.
In turn, `CC(C)(C)OC(=O)NCCOCCOCCNC(=O)CCCCC1SCC2NC(=O)NC21` (centres undefined) came in with a melting point of 106 to 108 °C.
Molecule `CCN(CC)S(=O)(=O)c1ccc2[nH]c(-c3c(C)c(Cl)cc(C(C)(C)C)c3O)nc2c1` came in with a melting point of 277 to 278 °C.
The figure for `CNC(=O)NC1CCCc2sccc21` (centres undefined) is 183 to 186 °C.
`Cc1ccc(CNc2cccc3c2CN(C2CCC(=O)NC2=O)C3=O)o1` (centres undefined): the melting point was in the range of 242 to 244 °C.
Turning to `N=C(NS(=O)(=O)c1ccc(Cl)cc1)C1CN(c2ccc(Cl)cc2)C(c2ccc(Cl)cc2Cl)=N1` (centres undefined), the melting point was 165 to 166 °C.
